Results reported in patent US10995083B2, “Cocrystal of 2-(6-methyl-pyridine-2-yl)-3-yl-[6-amide-quinoline-4-yl]-5,6-dihydro-4H-pyrrole[1,2-b]pyrazole, preparation method therefor, and pharmaceutical composition” (Hangzhou SoliPharma Co., Ltd., priority 2017, dated 2021).
Counter-ions that a name gives are not always drawn.

What was measured:
[1] = apparent water solubility test; format: physicochemical; conditions: for Solubility: apparent water solubility, 25° C.±2° C., clarity observed by naked eye, 5 mg sample, max 100 mL water; for apparent water solubility: as shown in Comparative Example 1
Protocol: Accurately weighed 5 mg samples in a 200 mL flask which was in a water bath with temperature 25° C.±2° C., added water in a geometric fashion the flask, stirred (about 200 r/min), and observed by naked eyes to see if it was clear. Water was added every 3 mins, maximum water amount 100 mL.

[2] = storage phase stability of crystalline form at 25° C./60% relative humidity; format: physicochemical; conditions: 6 months of storage at 25° C./60% relative humidity

Cc1cccc(-c2nn3c(c2-c2ccnc4ccc(C(N)=O)cc24)CCC3)n1 [LY2157299 succinate cocrystal form, 2-(6-methyl-pyridin-2-yl)-3-(6-amido-quinolin-4-yl)-5,6-dihydro-4H-pyrrolo[1,2-b]pyrazole]
Solubility [1]: 130 µg/mL
apparent water solubility [1]: about 130 ug/mL
crystalline form after storage (phase stability) [2]: remained its original crystalline form

Cc1cccc(-c2nn3c(c2-c2ccnc4ccc(C(N)=O)cc24)CCC3)n1 [LY2157299 fumarate cocrystal form, 2-(6-methyl-pyridin-2-yl)-3-(6-amido-quinolin-4-yl)-5,6-dihydro-4H-pyrrolo[1,2-b]pyrazole]
Solubility [1]: 330 µg/mL
apparent water solubility [1]: about 330 ug/mL
crystalline form after storage (phase stability) [2]: remained its original crystalline form

Cc1cccc(-c2nn3c(c2-c2ccnc4ccc(C(N)=O)cc24)CCC3)n1 [LY2157299 Monohydrate, 2-(6-methyl-pyridin-2-yl)-3-(6-amido-quinolin-4-yl)-5,6-dihydro-4H-pyrrolo[1,2-b]pyrazole, reference compound]
Solubility [1]: <50 µg/mL
apparent water solubility [1]: less than 50 ug/mL
